The experiment has as its target human and rat GPR-14. The experiment can be described thus: Radioligand binding ([125I] h-U-II). To be noted: radioligand binding assay; HEK-293 cell membranes, 200 pM [125I] h-U-II; species (human or rat) not given. Here is the method: HEK-293 cell membranes containing stable cloned human and rat GPR-14 (20 ug/assay) were incubated with 200 pM [125I] h-U-II (200 Ci/mmol^−1 in the presence of increasing concentrations of test compounds in DMSO (0.1 nM to 10 uM), in a final incubation volume of 200 ul (20 mM Tris-HCl, 5 mM MgCl2). Incubation was done for 30 minutes at room temperature followed by filtration GF/B filters with Brandel cell harvester. ^125I labeled U-II binding was quantitated by gamma counting. Nonspecific binding was defined by ^125I U-II binding in the presence of 100 nM of unlabeled human U-II. Analysis of the data was performed by nonlinear least square fitting.

SMILES strings stand for the structures.

In general, Ki refers to a dissociation constant, usually derived from enzyme kinetics or from competition with a known ligand. For `O=C(NC1CCN(S(=O)(=O)c2cc(Cl)c(OC3CCNCC3)c(Cl)c2)C1)c1ccc(Cl)c(Cl)c1` (stereo not shown) [Example 5], the Ki is 1500 nM.

The record behind these values is patent publication US20040142923A1, “Pyrrolidine sulfonamides” (priority 2003, published 2004).
